Results taken from patent US9302999B2, “Substituted triazoles as herbicides” (E. I. DU PONT DE NEMOURS AND COMPANY, priority 2012, dated 2016).

Assays:
Assay type in all cases: in vivo
[1] = test system: morningglory (Ipomoea spp.); assay: Test A pre-/postemergence: morningglory; details: for Morningglory plant response rating: Postemergence; for Plant response rating, Morningglory: Preemergence
Procedure, shortened: (§1)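 Compounds, formulated with surfactant in non-phytotoxic solvent, were applied as a directed soil spray preemergence and as postemergence sprays to 2–10 cm, one- to two-leaf seedlings grown in loam soil blended with sand; visual injury, 0–100, assessed ~10 days post-treatment against untreated controls.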

[2] = test system: ducksalad (Heteranthera limosa); assay: Test C flooded paddy test: ducksalad; details: scale 0 to 100 (0 no effect, 100 complete control)
Procedure, shortened: (§2)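 Visual ratings from 0 (no effect) to 100 (complete control), made against untreated controls 13 to 15 days after treatment, express plant response. Compounds went directly into paddy water over 2-leaf stage plants in pots flooded to 3 cm.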

[3] = test system: crabgrass, large (large crabgrass, Digitaria sanguinalis); assay: Test A pre-/postemergence: crabgrass, large; details: for Crabgrass, Large plant response rating: Postemergence; for Plant response rating, Crabgrass, Large: Preemergence
Procedure, shortened: as §1

[4] = test system: sedge, umbrella (small-flower umbrella sedge, Cyperus difformis); assay: Test C flooded paddy test: sedge, umbrella; details: scale 0 to 100 (0 no effect, 100 complete control)
Procedure, shortened: as §2

[5] = test system: barnyardgrass (Echinochloa crus-galli); assay: Test C flooded paddy test: barnyardgrass; details: scale 0 to 100 (0 no effect, 100 complete control)
Procedure, shortened: as §2

corn (Zea mays) = assay: Test A pre-/postemergence: corn; details: for Corn plant response rating: Postemergence; for Plant response rating, Corn: Preemergence
Procedure, shortened: as §1

rice (Oryza sativa) = assay: Test C flooded paddy test: rice; details: scale 0 to 100 (0 no effect, 100 complete control)
Procedure, shortened: as §2

[6] = test system: barnyardgrass (Echinochloa crus-galli); assay: Test A pre-/postemergence: barnyardgrass; details: for Barnyardgrass plant response rating: Postemergence; for Plant response rating, Barnyardgrass: Preemergence
Procedure, shortened: as §1

[7] = test system: velvetleaf (Abutilon theophrasti); assay: Test A pre-/postemergence: velvetleaf; details: for Velvetleaf plant response rating: Postemergence; for Plant response rating, Velvetleaf: Preemergence
Procedure, shortened: as §1

[8] = test system: wheat (Triticum aestivum); assay: Test A pre-/postemergence: wheat; details: for Wheat plant response rating: Postemergence; for Plant response rating, Wheat: Preemergence
Procedure, shortened: as §1

[9] = test system: foxtail, giant (giant foxtail, Setaria faberii); assay: Test A pre-/postemergence: foxtail, giant; details: for Foxtail, Giant plant response rating: Postemergence; for Plant response rating, Foxtail, Giant: Preemergence
Procedure, shortened: as §1

[10] = test system: pigweed (Amaranthus retroflexus); assay: Test A pre-/postemergence: pigweed; details: for Pigweed plant response rating: Postemergence; for Plant response rating, Pigweed: Preemergence
Procedure, shortened: as §1

[11] = 125 g ai/ha, 0 to 100 scale, 0 is no effect, 100 is complete control
[12] = 500 g ai/ha, visual rating on 0 to 100 scale (0 no effect, 100 complete control), approximately ten days
[13] = 125 g ai/ha, 0 to 100 scale where 0 is no effect and 100 is complete control
[14] = 500 g ai/ha, 0 to 100 scale, 0 is no effect, 100 is complete control
[15] = Flood (flooded paddy test), 125 g ai/ha, visual rating after 13 to 15 days
[16] = Flood (flooded paddy test), 250 g ai/ha, visual rating after 13 to 15 days
[17] = 125 g ai/ha, 0 to 100 scale (0 no effect, 100 complete control)
[18] = Flood (flooded paddy test), 62 g ai/ha, visual rating after 13 to 15 days

## Cc1nn(-c2ccc(Br)cc2)nc1C(=O)c1cccc(C(F)(F)F)c1 [Compound 92]
[1]; [11]
  Morningglory plant response rating: 10
[1]; [12]
  Morningglory plant response rating: 30
[1]; [13]
  Plant response rating, Morningglory: 0
[1]; [14]
  Plant response rating, Morningglory: 0
[2]; [15]
  Plant response rating, Ducksalad: 0
[2]; [16]
  Plant response rating, Ducksalad: 0
[2]; Flood, 31 g ai/ha
  Plant response rating, Ducksalad: 0
[2]; Flood, 62 g ai/ha
  Plant response rating, Ducksalad: 0
[3]; [11]
  Crabgrass, Large plant response rating: 10
[3]; [12]
  Crabgrass, Large plant response rating: 30
[3]; [17]
  Plant response rating, Crabgrass, Large: 10
[3]; [14]
  Plant response rating, Crabgrass, Large: 40
[4]; [15]
  Plant response rating, Sedge, Umbrella: 0
[4]; [16]
  Plant response rating, Sedge, Umbrella: 0
[4]; Flood, 31 g ai/ha
  Plant response rating, Sedge, Umbrella: 0
[4]; Flood, 62 g ai/ha
  Plant response rating, Sedge, Umbrella: 0
[5]; [15]
  Plant response rating, Barnyardgrass: 0
[5]; [16]
  Plant response rating, Barnyardgrass: 0
[5]; Flood, 31 g ai/ha
  Plant response rating, Barnyardgrass: 0
[5]; Flood, 62 g ai/ha
  Plant response rating, Barnyardgrass: 0
Corn (Zea mays); [11]
  Corn plant response rating: 10
Corn (Zea mays); [12]
  Corn plant response rating: 10
Corn (Zea mays); [17]
  Plant response rating, Corn: 0
Corn (Zea mays); [14]
  Plant response rating, Corn: 0
Rice (Oryza sativa); [15]
  Plant response rating, Rice: 0
Rice (Oryza sativa); [16]
  Plant response rating, Rice: 0
Rice (Oryza sativa); Flood, 31 g ai/ha
  Plant response rating, Rice: 0
Rice (Oryza sativa); Flood, 62 g ai/ha
  Plant response rating, Rice: 0
[6]; [11]
  Barnyardgrass plant response rating: 0
[6]; [12]
  Barnyardgrass plant response rating: 10
[6]; [17]
  Plant response rating, Barnyardgrass: 0
[6]; [14]
  Plant response rating, Barnyardgrass: 0
[7]; [11]
  Velvetleaf plant response rating: 20
[7]; [12]
  Velvetleaf plant response rating: 20
[7]; [13]
  Plant response rating, Velvetleaf: 0
[7]; [14]
  Plant response rating, Velvetleaf: 0
[8]; [11]
  Wheat plant response rating: 0
[8]; [12]
  Wheat plant response rating: 10
[8]; [13]
  Plant response rating, Wheat: 0
[8]; [14]
  Plant response rating, Wheat: 0
[9]; [11]
  Foxtail, Giant plant response rating: 10
[9]; [12]
  Foxtail, Giant plant response rating: 20
[9]; [13]
  Plant response rating, Foxtail, Giant: 10
[9]; [14]
  Plant response rating, Foxtail, Giant: 20
[10]; [11]
  Pigweed plant response rating: 30
[10]; [12]
  Pigweed plant response rating: 90
[10]; [13]
  Plant response rating, Pigweed: 0
[10]; [14]
  Plant response rating, Pigweed: 10

## Cc1nn(-c2cnc(Cl)cn2)nc1C(=O)c1cccc(C(F)(F)F)c1 [Compound 50]
[1]; [11]
  Morningglory plant response rating: 0
[1]; [12]
  Morningglory plant response rating: 10
[1]; [17]
  Plant response rating, Morningglory: 0
[1]; [14]
  Plant response rating, Morningglory: 0
[2]; [18]
  Plant response rating, Ducksalad: 0
[2]; [16]
  Plant response rating, Ducksalad: 0
[3]; [11]
  Crabgrass, Large plant response rating: 0
[3]; [12]
  Crabgrass, Large plant response rating: 10
[3]; [17]
  Plant response rating, Crabgrass, Large: 10
[3]; [14]
  Plant response rating, Crabgrass, Large: 20
[4]; [18]
  Plant response rating, Sedge, Umbrella: 0
[4]; [16]
  Plant response rating, Sedge, Umbrella: 0
[5]; [18]
  Plant response rating, Barnyardgrass: 0
[5]; [16]
  Plant response rating, Barnyardgrass: 0
Corn (Zea mays); [11]
  Corn plant response rating: 0
Corn (Zea mays); [12]
  Corn plant response rating: 10
Corn (Zea mays); [17]
  Plant response rating, Corn: 0
Corn (Zea mays); [14]
  Plant response rating, Corn: 0
Rice (Oryza sativa); [18]
  Plant response rating, Rice: 0
Rice (Oryza sativa); [16]
  Plant response rating, Rice: 0
[6]; [11]
  Barnyardgrass plant response rating: 0
[6]; [12]
  Barnyardgrass plant response rating: 10
[6]; [17]
  Plant response rating, Barnyardgrass: 0
[6]; [14]
  Plant response rating, Barnyardgrass: 0
[7]; [11]
  Velvetleaf plant response rating: 0
[7]; [12]
  Velvetleaf plant response rating: 10
[7]; [17]
  Plant response rating, Velvetleaf: 0
[7]; [14]
  Plant response rating, Velvetleaf: 0
[8]; [11]
  Wheat plant response rating: 0
[8]; [12]
  Wheat plant response rating: 0
[8]; [17]
  Plant response rating, Wheat: 0
[8]; [14]
  Plant response rating, Wheat: 0
[9]; [11]
  Foxtail, Giant plant response rating: 0
[9]; [12]
  Foxtail, Giant plant response rating: 10
[9]; [17]
  Plant response rating, Foxtail, Giant: 10
[9]; [14]
  Plant response rating, Foxtail, Giant: 40
[10]; [11]
  Pigweed plant response rating: 10
[10]; [12]
  Pigweed plant response rating: 20
[10]; [17]
  Plant response rating, Pigweed: 0
[10]; [14]
  Plant response rating, Pigweed: 10
